According to patent US11572341B2, “Biguanide compound and use thereof” (ImmunoMet Therapeutics Inc., priority 2014, dated 2023):
Counter-ions that a name gives are not always drawn. Like-named read-outs stand apart in the source and are kept apart here.

Legend:
AMPKa [pT172] = test: AMPKa activation [pT172] in MCF7 cell; format: cell-based
HCT116 cells = test: Inhibitory effect against cancer cell proliferation (MTT); format: cell-based, human; conditions: read-out: IC50 (uM) @ HCT116
Procedure: The formazane crystals thus formed were dissolved using dimethyl sulfoxide (DMSO) and absorbance of the solution was measured at 560 nm. After culturing for 48 hours, […] synthesized in Examples was indicated as cell viability (%) according to each treated concentration.

[1] = Homo sapiens, HCT-116, HCT116, MTT, 48 hours

Compound | IC50 (HCT116 cells; [1]) [µM] | AMPKa activation [pT172] (Unit/ml) @ MCF7 cell (AMPKa [pT172]; 5 uM) [Unit/ml] | AMPKa activation [pT172] (Unit/ml) @ MCF7 cell (AMPKa [pT172]; 10 uM) [Unit/ml] | AMPKa activation [pT172] (Unit/ml) @ MCF7 cell (AMPKa [pT172]; 50 uM) | IC50 (HCT116 cells; Homo sapiens, HCT-116, 48 h) [µM] | IC50 (HCT116 cells; HCT116, MTT, 48 hours) [µM]
C/N=C(\NCCc1ccc2c(c1)OCO2)NC(=N)N.Cl [Example 102, N1-2-(benzo[d][1,3]dioxol-5-yl)ethyl-N2-methyl Biguanide Hydrochloride] | > 100 | 4.8 | 2.8 | 6.8 Unit/ml |  | 
Cl.N=C(N)NC(=N)Nc1ccc(Cl)cc1 [Example 110, N1-(4-chloro)phenyl Biguanide Hydrochloride] |  |  |  | 3.9 Unit/ml | 97.2 | 
C=CCNC(=N)NC(=N)N.Cl [Example 111, N1-(2-prophene) Biguanide Hydrochloride] | 35.7 | 11.4 | 12.1 | 30.2 Unit/ml |  | 
Cl.N=C(N)NC(=N)NCc1ccc2c(c1)OCO2 [Example 112, N1-(benzo[d][1,3]dioxol-5-yl)methyl Biguanide Hydrochloride] | > 100 |  |  | 10.6 Unit/ml |  | 
CCCNC(=N)NC(=N)N.Cl [Example 114, N1-propyl Biguanide Hydrochloride] | 118 |  |  | 6.1 Unit/ml |  | 
CC(C)N(C(=N)NC(=N)N)C(C)C.Cl [Example 115, N1,N1-diisopropyl Biguanide Hydrochloride] | > 100 |  |  | 4.8 Unit/ml |  | 
CC(=O)c1ccc(NC(=N)NC(=N)N)cc1.Cl [Example 117, N1-(4-acetyl)phenyl Biguanide Hydrochloride] | > 100 |  |  | 6.2 Unit/ml |  | 
Cl.N=C(N)NC(=N)Nc1ccccc1C(F)(F)F [Example 119, N1-(2-trifluoromethyl)phenyl Biguanide Hydrochloride] | 3.5 | 6.9 | 8.8 | 8.5 Unit/ml |  | 
COc1ccc(NC(=N)NC(=N)N)cc1.Cl [Example 120, N1-(4-methoxy)phenyl Biguanide Hydrochloride] | > 100 |  |  | 8.1 Unit/ml |  | 
CCCc1ccccc1NC(=N)NC(=N)N.Cl [Example 121, N1-(2-propyl)phenyl Biguanide Hydrochloride] | > 100 |  |  | 9.0 Unit/ml |  | 
Cl.N=C(N)NC(=N)N1CCCCC1 [Example 123, N1-piperidine Biguanide Hydrochloride] | > 100 | 6.6 | 7.5 | 12.6 Unit/ml |  | 
Cl.N=C(N)NC(=N)NCc1ccccc1 [Example 124, N1-benzyl Biguanide Hydrochloride] | 56.7 |  |  | 8.4 Unit/ml |  | 
CC(=O)Nc1ccc(NC(=N)NC(=N)N)cc1.Cl [Example 125, N1-4-(N-acetylamino)phenyl Biguanide Hydrochloride] | > 100 |  |  | 5.0 Unit/ml |  | 
Cl.N=C(N)NC(=N)N1CCCC1 [Example 126, N1-pyrrolidine Biguanide Hydrochloride] | > 100 | 6.1 | 6.4 | 10.7 Unit/ml |  | 
Cl.N=C(N)NC(=N)Nc1ccc(C(F)(F)F)cc1 [Example 128, N1-(4-trifluoromethyl)phenyl Biguanide Hydrochloride] | > 100 | 7.6 | 7.1 | 8.8 Unit/ml |  | 
Cl.N=C(N)NC(=N)NCc1ccc(Cl)cc1 [Example 129, N1-(4-chloro)benzyl Biguanide Hydrochloride] | > 100 | 9.2 | 7.0 | 11.4 Unit/ml |  | 
Cl.N=C(N)NC(=N)N(Cc1ccccc1)Cc1ccccc1 [Example 130, N1,N1-dibenzyl Biguanide Hydrochloride] | > 100 |  |  | 8.8 Unit/ml |  | 
COc1ccc(CNC(=N)NC(=N)N)cc1 [Example 131, N1-(4-methoxy)benzyl Biguanide Hydrochloride] |  |  |  | 17.6 Unit/ml | > 100 | 
N1-(3,5-dimethyl)piperidin-N5-(4-trifluoromethyl)phenyl Biguanide Hydrochloride [Example 63] |  | 15.1 | 22.9 | cell death |  | 2.8

Now from value to compound, other results behind:

IC50 (HCT116 cells; [1]) [µM] | Compound | AMPKa activation [pT172] (Unit/ml) @ MCF7 cell (AMPKa [pT172]; 5 uM) [Unit/ml] | AMPKa activation [pT172] (Unit/ml) @ MCF7 cell (AMPKa [pT172]; 10 uM) [Unit/ml] | AMPKa activation [pT172] (Unit/ml) @ MCF7 cell (AMPKa [pT172]; 50 uM) | IC50 (HCT116 cells; Homo sapiens, HCT-116, 48 h) [µM] | IC50 (HCT116 cells; HCT116, MTT, 48 hours) [µM]
> 100 | CCCCCCN(CCCCCC)C(=N)NC(=N)N.Cl [Example 133, N1,N1-dihexyl Biguanide Hydrochloride] |  |  | 7.1 Unit/ml |  | 
> 100 | CCCCN(C)C(=N)NC(=N)N.Cl [Example 134, N1-methyl-N1-butyl Biguanide Hydrochloride] |  |  | 16.2 Unit/ml |  | 
> 100 | CN(C(=N)NC(=N)N)C1CCCCC1.Cl [Example 135, N1-methyl-N1-cyclohexyl Biguanide Hydrochloride] |  |  | 4.2 Unit/ml |  | 
> 100 | Cl.N=C(N)NC(=N)N(C1CCCCC1)C1CCCCC1 [Example 136, N1,N1-dicyclohexyl Biguanide Hydrochloride] |  |  | 5.9 Unit/ml |  | 
> 100 | Cl.N=C(N)NC(=N)NCCc1ccc(Cl)cc1 [Example 137, N1-(4-chloro)phenethyl Biguanide Hydrochloride] | 4.1 | 7.3 | 11.9 Unit/ml |  | 
> 100 | Cl.N=C(N)NC(=N)NCCc1ccc(O)cc1 [Example 138, N1-(4-hydroxy)phenethyl Biguanide Hydrochloride] | 3.7 | 3.7 | 4.2 Unit/ml |  | 
> 100 | Cl.N=C(N)NC(=N)N1CCCCCC1 [Example 139, N1-azepane Biguanide Hydrochloride] | 5.7 | 5.8 | 10.9 Unit/ml |  | 
> 100 | Cl.N=C(N)NC(=N)NCc1ccc(C(F)(F)F)cc1 [Example 141, N1-(4-trifluoromethyl)benzyl Biguanide Hydrochloride] | 5.6 | 6.1 | 10.3 Unit/ml |  | 
73.6 | Cl.N=C(N)NC(=N)NCc1ccc(OC(F)(F)F)cc1 [Example 142, N1-(4-trifluoromethoxy)benzyl Biguanide Hydrochloride] | 4.7 | 6.0 | 7.2 Unit/ml |  | 
124 | Cl.N=C(N)NC(=N)NCCc1ccc2c(c1)OCO2 [Example 143, N1-2-(benzo[d][1,3]dioxol-5-yl)ethyl Biguanide Hydrochloride] | 5.5 | 5.7 | 7.2 Unit/ml |  | 
> 100 | CC1CC(=O)N=C(NC(=N)N2CCCCC2)N1.Cl (centres unmarked) [Example 154, N-(6-methyl-4-oxo-1,4,5-tetrahydropyrimidin-2-yl)piperidin-1-carboximidamide Hydrochloride] | 2.9 | 2.9 | 2.8 Unit/ml |  | 
> 100 | CC1CNC(NC(=N)N2CCCCC2)=NC1=O.Cl (centres unmarked) [Example 155, N-(5-methyl-4-oxo-1,4,5,6-tetrahydropyrimidin-2-yl)piperidin-1-carboximidamide Hydrochloride] | 3.3 | 2.8 | 3.9 Unit/ml |  | 
> 100 | Cl.N=C(NC1=NC(=O)CCN1)N1CCCCC1 [Example 156, N-(4-oxo-1,4,5,6-tetrahydropyrimidin-2-yl)piperidin-1-carboximidamide Hydrochloride] | 3.6 | 2.6 | 4.9 Unit/ml |  | 
